The values that follow come from patent publication US8999974B2, “Acyl piperazine derivatives as TTX-S blockers” (Raqualia Pharma Inc., priority 2010, dated 2015).

Each structure is given as a SMILES string. A value given as a limit tells only on which side of the number the result lay.

What is called IC50 is the midpoint of a concentration-inhibition curve.

Experiment [1] has as its target T1, human Nav1.7 (Homo sapiens, UniProt Q15858).
T1 construct: expressed in transfected cells; host or cells: CHO
The experiment is described as follows: FRET assay (EFS, FDSS) on CHO cells expressing human NaV1.7 channels. In kind it is cell-based. Particulars: for IC50: FRET assay, CHO cells expressing human NaV1.7, read-out: IC50 against Nav1.7. The method, then: This screen was used to determine the effects of compounds on human NaV1.3, human Nav1.7, and human Nav1.5 channels, utilising electrical field stimulation (EFS) system in 96-well plate format on FDSS (Hamamatsu Photonics) platform. The change of membrane potential was monitored with FRET dye pair, oxonol (DiSBAC2(3)) and coumarin (CC2-DMPE).
CHO cells expressing human NaV1.7 channels were grown in T225 flasks, in a 5% CO2 humidified incubator to about 80% confluence. Media composition consisted of HAM/F12 with Glutamax I, 10% FCS, 100 units/ml Penicillin and 100 microgram/ml Hygromycin.
Protocol: • Seeded each cell lines (1×10^5 cells/well) into poly-D-lysine coated 96-well plates prior to experimentation. • Incubated at 37° C. in 5% CO2 for 24 hours. • Washed each well with assay buffer (140 mM NaCl, 4.5 mM KCl, 10 mM D-Glucose, 2 mM CaCl2, 1 mM MgCl2, 10 mM HEPES, pH 7.4 adjusted with NaOH) twice. • Added 1st loading solution containing 10 microM CC2-DMPE and 0.06% Pluronic F-127 in assay buffer. • Incubated the plate at room temperature in dark for 1 hour. • Removed 1st loading solution and added 2nd loading solution containing 15 microM DiSBAC2(3), 0.555 mM VABSC-1 and 0.004% Pluronic F-127 in assay buffer. • Placed the plate under the dark at room temperature for 25 minutes. • Added compound solutions into the assay plate. • Set the assay plate in FDSS and placed an EFS device on the plate. • Measured EFS-induced fluorescent response by FDSS.
The data were analyzed and reported as normalized ratios of intensities measured at […]. The process of calculating these ratios was performed as follows:
[formula] This analysis was performed using a computerized specific program designed for FDSS generated data. Fluorescence ratio values were plotted using XLfit to determine an IC50 value for each compound.

Experiment [2] deals with T2, human NaV1.3 (Homo sapiens, UniProt Q9NY46).
T2 construct: expressed in transfected cells; host or cells: HEK293
The experiment in a line: FRET assay (EFS, FDSS) on HEK293 cells expressing human NaV1.3 channels. Particulars: for IC50: FRET assay, HEK293 cells expressing human NaV1.3, read-out: IC50 against Nav1.3. In kind it is cell-based. In a few lines:
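Membrane potential in HEK293 cells stably expressing human NaV1.3, read by FRET (CC2-DMPE 10 µM / DiSBAC2(3) 15 µM with 0.555 mM VABSC-1) after electrical field stimulation, in HEPES-buffered saline pH 7.4. Compounds added after dye loading at room temperature. IC50 from normalized 440 nm fluorescence ratios.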

Where [3] appears, read: comparison compound of WO 2008147864.

T2 sequence (Q9NY46 whole entry): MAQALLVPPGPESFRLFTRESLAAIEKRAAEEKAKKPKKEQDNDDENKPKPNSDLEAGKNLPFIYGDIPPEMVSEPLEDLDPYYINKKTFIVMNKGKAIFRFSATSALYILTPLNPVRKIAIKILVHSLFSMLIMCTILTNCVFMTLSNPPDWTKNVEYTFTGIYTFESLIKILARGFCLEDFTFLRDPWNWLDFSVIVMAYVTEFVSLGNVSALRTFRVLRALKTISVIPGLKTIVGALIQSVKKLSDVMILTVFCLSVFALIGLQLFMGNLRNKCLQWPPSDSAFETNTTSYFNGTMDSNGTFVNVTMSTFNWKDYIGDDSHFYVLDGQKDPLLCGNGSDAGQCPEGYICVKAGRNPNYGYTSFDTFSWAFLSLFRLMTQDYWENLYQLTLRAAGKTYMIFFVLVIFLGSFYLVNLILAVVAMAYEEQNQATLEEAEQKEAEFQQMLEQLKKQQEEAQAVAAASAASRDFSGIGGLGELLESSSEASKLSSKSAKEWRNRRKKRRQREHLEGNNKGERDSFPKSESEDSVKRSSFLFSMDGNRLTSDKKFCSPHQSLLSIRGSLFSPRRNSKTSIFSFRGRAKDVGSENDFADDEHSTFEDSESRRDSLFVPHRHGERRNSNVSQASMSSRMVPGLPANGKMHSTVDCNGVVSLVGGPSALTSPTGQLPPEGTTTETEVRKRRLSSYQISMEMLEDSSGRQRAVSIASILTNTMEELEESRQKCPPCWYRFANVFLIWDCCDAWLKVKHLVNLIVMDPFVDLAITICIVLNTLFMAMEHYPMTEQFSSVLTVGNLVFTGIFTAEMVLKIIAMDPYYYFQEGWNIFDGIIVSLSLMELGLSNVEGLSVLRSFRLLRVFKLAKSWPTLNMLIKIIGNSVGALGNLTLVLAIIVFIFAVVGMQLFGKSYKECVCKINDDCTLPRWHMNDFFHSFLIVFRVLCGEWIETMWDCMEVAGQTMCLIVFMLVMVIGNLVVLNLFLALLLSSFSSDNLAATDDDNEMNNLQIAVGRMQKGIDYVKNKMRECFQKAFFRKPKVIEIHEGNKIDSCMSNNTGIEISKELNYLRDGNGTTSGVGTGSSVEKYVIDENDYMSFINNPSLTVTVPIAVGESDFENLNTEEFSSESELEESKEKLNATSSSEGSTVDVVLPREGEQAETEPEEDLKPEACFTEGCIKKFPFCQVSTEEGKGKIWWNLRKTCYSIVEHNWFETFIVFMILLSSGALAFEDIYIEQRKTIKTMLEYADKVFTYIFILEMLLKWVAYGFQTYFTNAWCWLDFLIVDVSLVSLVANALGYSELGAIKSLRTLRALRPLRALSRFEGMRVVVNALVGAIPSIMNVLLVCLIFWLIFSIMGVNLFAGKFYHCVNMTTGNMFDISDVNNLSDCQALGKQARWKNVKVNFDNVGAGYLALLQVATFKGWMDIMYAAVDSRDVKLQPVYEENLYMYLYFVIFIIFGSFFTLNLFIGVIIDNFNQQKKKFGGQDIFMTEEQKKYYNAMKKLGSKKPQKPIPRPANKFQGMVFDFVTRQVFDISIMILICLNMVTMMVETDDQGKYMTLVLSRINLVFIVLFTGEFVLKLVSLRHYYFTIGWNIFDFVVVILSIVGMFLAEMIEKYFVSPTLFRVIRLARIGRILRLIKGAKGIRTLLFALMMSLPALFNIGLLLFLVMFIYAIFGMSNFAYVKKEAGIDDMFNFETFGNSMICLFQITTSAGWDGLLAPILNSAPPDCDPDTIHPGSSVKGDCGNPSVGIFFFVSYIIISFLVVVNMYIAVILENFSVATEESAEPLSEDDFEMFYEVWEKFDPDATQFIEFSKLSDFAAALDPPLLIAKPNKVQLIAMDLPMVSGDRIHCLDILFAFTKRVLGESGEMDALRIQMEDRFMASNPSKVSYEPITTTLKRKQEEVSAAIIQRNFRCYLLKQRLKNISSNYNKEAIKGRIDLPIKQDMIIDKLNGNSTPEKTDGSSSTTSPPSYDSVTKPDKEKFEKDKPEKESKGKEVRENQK
T1 sequence (Q15858 whole entry): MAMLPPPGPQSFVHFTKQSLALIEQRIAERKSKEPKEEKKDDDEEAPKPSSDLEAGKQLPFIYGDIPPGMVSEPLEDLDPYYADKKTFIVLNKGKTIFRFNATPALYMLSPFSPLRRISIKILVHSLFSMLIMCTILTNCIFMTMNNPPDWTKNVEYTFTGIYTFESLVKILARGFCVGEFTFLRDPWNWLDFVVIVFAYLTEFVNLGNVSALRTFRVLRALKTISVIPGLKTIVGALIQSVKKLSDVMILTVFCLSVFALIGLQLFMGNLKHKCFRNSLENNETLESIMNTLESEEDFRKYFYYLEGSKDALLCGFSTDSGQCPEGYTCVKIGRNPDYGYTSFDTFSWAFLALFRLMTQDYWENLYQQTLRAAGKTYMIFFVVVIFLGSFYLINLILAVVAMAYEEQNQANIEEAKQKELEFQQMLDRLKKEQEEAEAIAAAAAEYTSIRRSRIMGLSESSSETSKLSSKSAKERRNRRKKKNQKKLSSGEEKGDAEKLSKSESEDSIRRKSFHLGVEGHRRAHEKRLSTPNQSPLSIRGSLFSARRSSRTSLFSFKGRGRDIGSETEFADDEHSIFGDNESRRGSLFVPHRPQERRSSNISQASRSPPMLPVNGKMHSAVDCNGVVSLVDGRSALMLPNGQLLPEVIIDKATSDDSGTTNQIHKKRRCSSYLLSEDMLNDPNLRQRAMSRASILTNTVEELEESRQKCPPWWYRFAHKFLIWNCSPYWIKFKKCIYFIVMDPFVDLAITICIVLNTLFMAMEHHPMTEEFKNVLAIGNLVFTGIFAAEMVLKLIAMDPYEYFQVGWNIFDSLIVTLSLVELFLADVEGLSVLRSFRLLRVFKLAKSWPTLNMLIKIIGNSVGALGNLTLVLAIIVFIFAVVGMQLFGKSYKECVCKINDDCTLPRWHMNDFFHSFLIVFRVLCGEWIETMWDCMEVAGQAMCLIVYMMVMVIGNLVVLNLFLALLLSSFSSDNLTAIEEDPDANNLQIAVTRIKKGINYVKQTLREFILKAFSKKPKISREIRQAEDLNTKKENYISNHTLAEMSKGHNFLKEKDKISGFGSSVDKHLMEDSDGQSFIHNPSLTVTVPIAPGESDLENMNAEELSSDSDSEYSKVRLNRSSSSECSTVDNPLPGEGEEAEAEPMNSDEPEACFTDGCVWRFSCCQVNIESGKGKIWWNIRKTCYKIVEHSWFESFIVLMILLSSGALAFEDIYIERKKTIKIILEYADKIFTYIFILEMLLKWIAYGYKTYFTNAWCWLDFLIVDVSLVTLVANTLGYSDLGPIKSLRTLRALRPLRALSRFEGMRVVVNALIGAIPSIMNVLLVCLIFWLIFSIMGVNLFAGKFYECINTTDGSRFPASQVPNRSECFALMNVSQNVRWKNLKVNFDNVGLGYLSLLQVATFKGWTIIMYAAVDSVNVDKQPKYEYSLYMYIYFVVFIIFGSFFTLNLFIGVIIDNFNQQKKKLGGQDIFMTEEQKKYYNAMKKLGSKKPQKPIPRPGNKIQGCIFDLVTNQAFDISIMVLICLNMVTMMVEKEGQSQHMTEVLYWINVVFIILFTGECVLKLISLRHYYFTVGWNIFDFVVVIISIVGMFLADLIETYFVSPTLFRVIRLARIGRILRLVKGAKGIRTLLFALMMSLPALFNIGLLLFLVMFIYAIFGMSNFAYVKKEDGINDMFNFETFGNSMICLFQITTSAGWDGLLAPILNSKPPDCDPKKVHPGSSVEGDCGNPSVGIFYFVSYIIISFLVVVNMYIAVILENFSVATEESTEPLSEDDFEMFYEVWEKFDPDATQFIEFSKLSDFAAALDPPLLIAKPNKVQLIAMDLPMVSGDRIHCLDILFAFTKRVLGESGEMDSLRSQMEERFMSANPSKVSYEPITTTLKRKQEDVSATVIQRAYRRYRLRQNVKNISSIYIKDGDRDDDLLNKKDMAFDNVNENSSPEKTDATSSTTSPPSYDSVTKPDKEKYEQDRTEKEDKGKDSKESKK

As for `O=C(c1ccc2c(=O)n(CCc3ccccc3)c(=O)[nH]c2c1)N1CCN(c2ncccn2)CC1` [3-(2-phenylethyl)-7-[(4-pyrimidin-2-ylpiperazin-1-yl)carbonyl]quinazoline-2,4(1H,3H)-dione], in experiment [1] (setting [3]), the “activity against NaV1.7” value is “no activity”. Further, in experiment [2] (setting [3]), the “activity against NaV1.3” value is given as “no activity”. `CC(C)COc1cc(N2CCN(C(=O)c3cccc(OC(F)(F)F)c3)CC2)ncn1` [Example 15, (4-(6-isobutoxypyrimidin-4-yl)piperazin-1-yl)(3-(trifluoromethoxy)phenyl)methanone]: the IC50 in experiment [1] and in experiment [2] was < 3 µM in each case. Consider `CC(C)COc1cc(N2CCN(C(=O)c3nn(C)c4ccccc34)CC2)ncn1` [Example 22, (4-(6-isobutoxypyrimidin-4-yl)piperazin-1-yl)(1-methyl-1H-indazol-3-yl)methanone], for which the half-maximal inhibitory concentration (IC50) in experiment [1] and in experiment [2] was < 3 µM each time. For the compound `CC(C)COc1cc(N2CCN(C(=O)COc3ccc(F)cc3)CC2)ncn1` [Example 24, 2-(4-fluorophenoxy)-1-(4-(6-isobutoxypyrimidin-4-yl)piperazin-1-yl)ethanone], the concentration for half-maximal inhibition (IC50) in experiment [1] and in experiment [2] was < 3 µM in each case. `CC(C)COc1cc(N2CCN(C(=O)CCn3ccc4ccccc43)CC2)ncn1` [Example 59, 3-(1H-indol-1-yl)-1-(4-(6-isobutoxypyrimidin-4-yl)piperazin-1-yl)propan-1-one]: the concentration for half-maximal inhibition (IC50) in experiment [1] and in experiment [2] was < 3 µM each time.

`COc1cccc(OCC(=O)N2CCN(c3cc(OCC(C)C)ncn3)CC2)c1` [Example 70, 1-(4-(6-isobutoxypyrimidin-4-yl)piperazin-1-yl)-2-(3-methoxyphenoxy)ethanone]: the IC50 in experiment [1] and in experiment [2] was < 3 µM in each case.

Regarding `CC(C)COc1cc(N2CCN(C(=O)CNC(=O)c3ccc(OCC(F)(F)F)nc3)CC2)ncn1` [Example 74, N-(2-(4-(6-isobutoxypyrimidin-4-yl)piperazin-1-yl)-2-oxoethyl)-6-(2,2,2-trifluoroethoxy)nicotinamide], the IC50 in experiment [1] and in experiment [2] was < 3 µM in each case. Take `CC(C)COc1cc(N2CCN(C(=O)COc3cccc4cccnc34)CC2)ncn1` [Example 77, 1-(4-(6-isobutoxypyrimidin-4-yl)piperazin-1-yl)-2-(quinolin-8-yloxy)ethanone]: the half-inhibitory concentration (IC50) in experiment [1] and in experiment [2] was < 3 µM in each case. As to `CC(C)COc1cc(N2CCN(C(=O)c3cc4ccccc4s3)CC2)ncn1` [Example 86], the IC50 in experiment [1] and in experiment [2] was < 3 µM throughout.

Regarding `CC(C)COc1cc(N2CCN(C(=O)CCOc3ccc(F)cc3)CC2)ncn1` [Example 89, 3-(4-fluorophenoxy)-1-(4-(6-isobutoxypyrimidin-4-yl)piperazin-1-yl)propan-1-one], the IC50 in experiment [1] and in experiment [2] was < 3 µM throughout. On to `CC(C)COc1cc(N2CCN(C(=O)c3cc(-c4ccccc4)on3)CC2)ncn1` [Example 90], for which the IC50 in experiment [1] and in experiment [2] was < 3 µM throughout. For the compound `CC(C)COc1cc(N2CCN(C(=O)Cn3nc4ccccc4n3)CC2)ncn1` [Example 105, 2-(2H-benzo[d][1,2,3]triazol-2-yl)-1-(4-(6-isobutoxypyrimidin-4-yl)piperazin-1-yl)ethanone], the IC50 in experiment [1] and in experiment [2] was < 3 µM each time. Regarding `CC(C)COc1cc(N2CCN(C(=O)CSc3ccccc3)CC2)ncn1` [Example 120, 1-(4-(6-isobutoxypyrimidin-4-yl)piperazin-1-yl)-2-(phenylthio)ethanone], the IC50 in experiment [1] and in experiment [2] was < 3 µM each time. As for `CC(C)COc1cc(N2CCN(C(=O)COc3ccc(F)c4cccnc34)CC2)ncn1` [Example 129, 2-((5-fluoroquinolin-8-yl)oxy)-1-(4-(6-isobutoxypyrimidin-4-yl)piperazin-1-yl)ethanone], the 50% inhibitory concentration (IC50) in experiment [1] and in experiment [2] was < 3 µM each time. Turning to `CC(C)COc1cc(N2CCN(C(=O)CCOc3ccccc3)CC2)ncn1` [Example 131, 1-(4-(6-isobutoxypyrimidin-4-yl)piperazin-1-yl)-3-phenoxypropan-1-one], the half-maximal inhibitory concentration (IC50) in experiment [1] and in experiment [2] was < 3 µM throughout. Regarding `Cc1cccc(OCCC(=O)N2CCN(c3cc(OCC(C)C)ncn3)CC2)c1` [Example 132, 1-(4-(6-isobutoxypyrimidin-4-yl)piperazin-1-yl)-3-(m-tolyloxy)propan-1-one], the IC50 in experiment [1] and in experiment [2] was < 3 µM each time. Take `CC(C)COc1cc(N2CCN(C(=O)c3cc(-c4ccccc4)n(C)n3)CC2)ncn1` [Example 133, (4-(6-isobutoxypyrimidin-4-yl)piperazin-1-yl)(1-methyl-5-phenyl-1H-pyrazol-3-yl)methanone]: the IC50 in experiment [1] and in experiment [2] was < 3 µM in each case. With `O=C(CCOc1ccc(F)cc1)N1CCN(c2cc(OCC(F)(F)F)ncn2)CC1` [Example 139, 3-(4-fluorophenoxy)-1-(4-(6-(2,2,2-trifluoroethoxy)pyrimidin-4-yl)piperazin-1-yl)propan-1-one], the IC50 in experiment [1] and in experiment [2] was < 3 µM throughout. For the compound `CC(C)COc1cc(N2CCN(C(=O)COc3cccc4c3ccn4C)CC2)ncn1` [Example 141, 1-(4-(6-isobutoxypyrimidin-4-yl)piperazin-1-yl)-2-((1-methyl-1H-indol-4-yl)oxy)ethanone], the IC50 in experiment [1] and in experiment [2] was < 3 µM in each case. Consider `CC(C)COc1cc(N2CCN(C(=O)COc3cccc(OC(F)(F)F)c3)CC2)ncn1` [Example 145, 1-(4-(6-isobutoxypyrimidin-4-yl)piperazin-1-yl)-2-(3-(trifluoromethoxy)phenoxy)ethanone], for which the IC50 in experiment [1] and in experiment [2] was < 3 µM throughout. Regarding `O=C(Cn1nc2ccccc2n1)N1CCN(c2cc(OCC(F)(F)F)ncn2)CC1` [Example 146, 2-(2H-benzo[d][1,2,3]triazol-2-yl)-1-(4-(6-(2,2,2-trifluoroethoxy)pyrimidin-4-yl)piperazin-1-yl)ethanone], the IC50 in experiment [1] and in experiment [2] was < 3 µM throughout. With `CC(C)Oc1cc(N2CCN(C(=O)c3csc(-c4ccccc4)n3)CC2)ncn1` [Example 165, (4-(6-isopropoxypyrimidin-4-yl)piperazin-1-yl)(2-phenylthiazol-4-yl)methanone], the IC50 in experiment [1] and in experiment [2] was < 3 µM each time. As to `CC(C)COc1cc(N2CCN(C(=O)c3csc(Cc4ccccc4)n3)CC2)ncn1` [Example 167, (2-benzylthiazol-4-yl)(4-(6-isobutoxypyrimidin-4-yl)piperazin-1-yl)methanone], the IC50 in experiment [1] and in experiment [2] was < 3 µM in each case. As for `CC(C)COc1cc(N2CCN(C(=O)COCc3ccc(F)cc3)CC2)ncn1` [Example 168, 2-((4-fluorobenzyl)oxy)-1-(4-(6-isobutoxypyrimidin-4-yl)piperazin-1-yl)ethanone], the IC50 in experiment [1] and in experiment [2] was < 3 µM in each case.

As to `Cc1c(C(=O)N2CCN(c3cc(OCC(C)C)ncn3)CC2)cnn1-c1ccc(F)cc1` [Example 169, (1-(4-fluorophenyl)-5-methyl-1H-pyrazol-4-yl)(4-(6-isobutoxypyrimidin-4-yl)piperazin-1-yl)methanone], the concentration for half-maximal inhibition (IC50) in experiment [1] and in experiment [2] was < 3 µM each time. Consider `Cc1nc(-c2cccc(C(=O)N3CCN(c4cc(OCC(C)C)ncn4)CC3)c2)cs1` [Example 187, (4-(6-isobutoxypyrimidin-4-yl)piperazin-1-yl)(3-(2-methylthiazol-4-yl)phenyl)methanone], for which the IC50 in experiment [1] and in experiment [2] was < 3 µM each time.

`Cc1nc(-c2ccccc2)oc1C(=O)N1CCN(c2cc(OCC(C)C)ncn2)CC1` [Example 208, (4-(6-isobutoxypyrimidin-4-yl)piperazin-1-yl)(4-methyl-2-phenyloxazol-5-yl)methanone]: the IC50 in experiment [1] and in experiment [2] was < 3 µM each time.

In the case of `Cc1onc(-c2ccccc2)c1C(=O)N1CCN(c2cc(OCC(F)(F)F)ncn2)CC1` [Example 245, (5-methyl-3-phenylisoxazol-4-yl)(4-(6-(2,2,2-trifluoroethoxy)pyrimidin-4-yl)piperazin-1-yl)methanone], the concentration for half-maximal inhibition (IC50) in experiment [1] is < 3 µM.
